The record followed here is PubChem BioAssay (NCI).

SMILES strings stand for the structures.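 96-well plates; 48 h exposure; 5 concentrations. Endpoints by linear interpolation between flanking doses. Not reached: highest tested concentration assigned. GI50: concentration for 50% inhibition of growth. TGI is the concentration that stops growth completely.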

Test systems include 786-0 renal; ACHN renal; DU-145 prostate; HCC-2998 colon; HS 578T breast; IGROV1 ovarian; RPMI-8226 leukemia; SF-268 CNS; SK-OV-3 ovarian; SR leukemia.
What all share (test): NCI anticancer screen, dose series, 48 h

Turning to `COC(=O)C(CCC(=O)CCl)N1C(=O)c2ccccc2C1=O` (configuration not stated), the TGI was found to be 15.2 µM with 786-0 renal; 13.9 µM with ACHN renal; 26.9 µM in the experiment with DU-145 prostate; 22.5 µM with HCC-2998 colon; 32.4 µM in the experiment on HS 578T breast; 26.9 µM with IGROV1 ovarian. Besides, the TGI in the experiment with RPMI-8226 leukemia was 20.7 µM; in the experiment with SF-268 CNS, 28.4 µM; with SK-OV-3 ovarian, 31.5 µM; in the experiment on SR leukemia, 11.7 µM.
Consider `CNNC(=N\S(=O)(=O)c1cc(C)c(Cl)cc1SCc1ccccc1)/N=C/c1ccc([N+](=O)[O-])s1`, for which the GI50 in the experiment with 786-0 renal was above 100 µM; in the experiment with ACHN renal it was above 100 µM; in the experiment with DU-145 prostate it was above 100 µM; with HCC-2998 colon, 1.29 µM; in the experiment with HS 578T breast, above 100 µM; in the experiment on IGROV1 ovarian, above 100 µM. The GI50 in the experiment on RPMI-8226 leukemia is 0.422 µM; with SF-268 CNS, above 100 µM; in the experiment with SK-OV-3 ovarian, above 100 µM; in the experiment with SR leukemia, 41.2 µM. In addition, the TGI was above 100 µM in the experiment with 786-0 renal; above 100 µM in the experiment with ACHN renal; above 100 µM in the experiment with DU-145 prostate; above 100 µM in the experiment on HS 578T breast; above 100 µM in the experiment with IGROV1 ovarian; above 45.3 µM in the experiment on RPMI-8226 leukemia. Also, the TGI in the experiment on SF-268 CNS, in the experiment on SK-OV-3 ovarian and in the experiment on SR leukemia was above 100 µM in each case.
Regarding `CCCCCCCCOC(=O)c1c(C)[nH]c(/C=C2\N=C(c3ccc[nH]3)C=C2OC)c1C`, the GI50 is 0.0407 µM with 786-0 renal; 0.0322 µM with ACHN renal; 0.0427 µM in the experiment with DU-145 prostate; 0.0398 µM in the experiment with HCC-2998 colon; 0.0494 µM with HS 578T breast; 0.0414 µM with IGROV1 ovarian. The GI50 with RPMI-8226 leukemia is 0.12 µM; with SF-268 CNS it was 0.0498 µM; in the experiment on SK-OV-3 ovarian it was 0.899 µM; with SR leukemia it was below 0.0169 µM. Further, the TGI worked out at 1.32 µM in the experiment with 786-0 renal; 1.77 µM in the experiment with ACHN renal; 9.87 µM with DU-145 prostate; 3.46 µM with HCC-2998 colon; 0.578 µM in the experiment on HS 578T breast; 6.81 µM in the experiment with IGROV1 ovarian. In addition, the TGI with RPMI-8226 leukemia was 2.11 µM; with SF-268 CNS, 7.2 µM; in the experiment on SK-OV-3 ovarian, 15.9 µM; in the experiment on SR leukemia, 1.05 µM.
As for `c1cc(-c2nnc(SSc3ncnc4nc[nH]c34)o2)ccn1`, the GI50 in the experiment on 786-0 renal is 0.986 µM; with ACHN renal, 4.07 µM; with DU-145 prostate it was 0.455 µM; with HCC-2998 colon, 3.38 µM; in the experiment with HS 578T breast, 2.56 µM; in the experiment with RPMI-8226 leukemia, 1.32 µM. Moreover, the GI50 with SF-268 CNS is 2.18 µM; in the experiment on SK-OV-3 ovarian, 0.45 µM; in the experiment on SR leukemia, 0.576 µM. Besides, the TGI with 786-0 renal, with ACHN renal, with DU-145 prostate, in the experiment on HCC-2998 colon, in the experiment with HS 578T breast and in the experiment with RPMI-8226 leukemia was above 100 µM throughout. The TGI in the experiment with SF-268 CNS, in the experiment on SK-OV-3 ovarian and in the experiment with SR leukemia was above 100 µM in each case.
Consider `O=C(/C=C/c1ccc(O)c(O)c1)NCc1c[nH]c2ccccc12`, for which the GI50 is 39.7 µM in the experiment with 786-0 renal; 45.8 µM in the experiment on ACHN renal; 78.3 µM with DU-145 prostate; 35.7 µM with HCC-2998 colon; 73.7 µM in the experiment with HS 578T breast; 57.3 µM in the experiment on IGROV1 ovarian. Further, the GI50 with RPMI-8226 leukemia was 57.9 µM; in the experiment with SF-268 CNS it was 63.8 µM; in the experiment with SR leukemia, 10 µM. Moreover, the TGI is above 100 µM in the experiment with 786-0 renal; above 100 µM with ACHN renal; above 100 µM in the experiment on DU-145 prostate; 76.1 µM with HCC-2998 colon; above 100 µM with HS 578T breast; above 100 µM with IGROV1 ovarian. For the same compound, the TGI is above 100 µM in the experiment with RPMI-8226 leukemia, above 100 µM in the experiment on SF-268 CNS and 37 µM with SR leukemia.
Consider `CCc1ccccc1NC(=O)/C=C/c1ccccc1`, for which the TGI in the experiment with 786-0 renal, in the experiment on ACHN renal, in the experiment with DU-145 prostate, in the experiment with HCC-2998 colon, in the experiment with HS 578T breast and with RPMI-8226 leukemia was above 100 µM throughout. Also, the TGI in the experiment with SF-268 CNS, in the experiment with SK-OV-3 ovarian and in the experiment on SR leukemia was above 100 µM throughout.
For the compound `CN1CCN(CCOc2ccc(-c3cnc4c(-c5cccc(F)c5)cnn4c3)cc2)CC1`, the GI50 in the experiment with 786-0 renal was 1.79 µM; with ACHN renal, 1.66 µM; in the experiment on DU-145 prostate, 1.74 µM; with HCC-2998 colon it was 1.7 µM; with HS 578T breast, 1.74 µM; in the experiment on IGROV1 ovarian it was 1.82 µM. Besides, the figures for the GI50 in the experiment on RPMI-8226 leukemia, in the experiment on SF-268 CNS and with SR leukemia were 1.85 µM, 1.99 µM and 4.02 µM, respectively. Besides, the TGI in the experiment with 786-0 renal was found to be 3.42 µM; with ACHN renal, 3.02 µM; with DU-145 prostate, 3.28 µM; in the experiment on HCC-2998 colon it was 3.28 µM; with HS 578T breast, 4.79 µM; in the experiment with IGROV1 ovarian it was 3.8 µM. In addition, the TGI was 5.25 µM with RPMI-8226 leukemia, 4.79 µM in the experiment with SF-268 CNS and above 100 µM in the experiment on SR leukemia.
